“Also recorded” adds a separate entry of the source. Like-named read-outs stand apart in the source and are kept apart here.
Experiments:
AMPK [1] = conditions: Corton et al., 1995; cited from earlier work
[2] = system: eukaryotic elongation factor 2 (eEF2); conditions: Horman et al., 2002; cited from earlier work
S6K [3] = conditions: Kimura et al., 2003; Krause et al., 2002; cited from earlier work
S6K-dC104 = experiment: Thr 389 phosphorylation and kinase activity of rapamycin-resistant mutant S6K-dC104; type: cell-based; conditions: FIG. 7a
Method: For the S6K assays, HEK293 cells grown in six-well plates were transfected with 10-20 ng HA-S6K constructs, with or without various plasmids, as indicated in the figures. HA-S6K was immunoprecipitated from serum-starved cells with an anti-HA antibody and analyzed by in vitro kinase assay using purified GST-S6 as a substrate (Pearson et al., EMBO J. 14, 5279-5287 (1995)).

S6K [4] = experiment: Phosphorylation of S6K, immunoblot with anti-phospho S6K antibody; type: cell-based; conditions: for phosphorylation of S6K on T389: endogenous S6K
From the text: (§1) Anti-S6K, anti-phospho S6K, anti-mTOR, anti-phospho mTOR, anti-Akt, anti-phospho Akt, antiphospho 4EBP-1 and anti-phospho ERK antibodies were from Cell Signalling Inc. Anti-TSC2 and anti-Myc antibodies were from Santa Cruz Biotechnology (Santa Cruz, Calif.). Anti-HA and anti-Flag antibodies were from Covance (Princeton, N.J.) and Sigma (St Louis, Mo.), respectively. HA-tagged S6K1 (II) and GST-S6 constructs were obtained from J. Blenis (Columbia Univ., NY, N.Y.). […] All other DNA constructs, including H-RasV12, PTEN, PTEN-CS, Akt, Akt-KM, Flag-ubiquitin and Flag-4E-BP1, were laboratory stock. All mutant constructs of TSC2 were created by PCR mutagenesis and verified by DNA sequencing. LY294002 was from Calbiochem (San Diego, Calif.); phosphatase was from New England Biolabs (Beverly, Mass.). MG132 was from the Peptide Institute. Cycloheximide and wortmannin were from Sigma. D-PBS was from Gibco. Rapamycin was from Cell Signalling.
(§2) HEK293 cells were seeded and maintained in Dulbecco's modified Eagle's medium (DMEM) containing 10% fetal bovine serum (FBS). Transfection was performed in serum-free conditions using Lipofectamine reagent (Invitrogen, Carlsbad, Calif.) in accordance with the manufacturer's instructions. In brief, 4 h after transfection, the cells were recovered in DMEM containing 10% FBS for 16 h and then starved for […]. Cells were then lysed in lysis buffer (10 mM Tris-HCl at pH 7.5, 100 mM sodium chloride, 1% NP-40, 1% Triton X-100, 50 mM sodium fluoride, 2 mM EDTA, 1 mM phenyl methylsulphonyl fluoride, 10 g ml^−1 leupeptin and 10 g ml^−1 aprotinine) and immunoprecipitated with the indicated antibodies and protein G-Sepharose beads. Immunocomplexes were analyzed by SDS-polyacrylamide gel electrophoresis (PAGE).

TSC2 [5] = experiment: In vivo 32P-labelling and two-dimensional phosphopeptide mapping of TSC2; type: cell-based, rat
Method: HEK293 cells were cotransfected with HA-tagged TSC2, Myc-tagged TSC1 and the indicated plasmids. Cells were phosphate- and serum-starved for 4 h before incubation with 0.25 mCi ml^−1 32P-orthophosphate (ICN) for 4 h.
Cells were washed once with ice-cold PBS and lysed. HA-tagged TSC2 was immunoprecipitated, resolved by SDS-PAGE and transferred to a PVDF membrane. Phosphorylated TSC2 was visualized by autoradiography and phosphopeptide mapping was then performed. In brief, the phosphorylated TSC2 bands were excised, fixed in methanol and incubated in 500 1 of 0.5% polyvinylpyrrolidone-40 dissolved in 100 mM acetic acid for 30 min at 37° C. The sample were then digested with 20 g of TPCK-treated trypsin (Sigma) at 37° C. in 75 mM ammonium bicarbonate buffer at pH 8.0 containing 5% acetonitrile. After digestion, samples were dried under vacuum and suspended in 10 1 of water. Samples were spotted onto a cellulose plate and first dimensional electrophoresis was performed using 1% ammonium bicarbonate buffer at pH 8.9. The plates were separated by chromatography in the second dimension in chromatography buffer (n-butanol:pyridine:acetic acid:water; 20:24:6:30). The plates were dried and phosphopeptides were visualized by autoradiography.

4EBP1 [6] = experiment: Phosphorylation of 4EBP1, immunoblot; type: cell-based
From the text: as §1, §2

S6 = experiment: Phosphorylation of S6, immunoblot; type: cell-based; conditions: FIG. 8C
Method: as §2

mTOR = experiment: Phosphorylation of mTOR at Ser 2448, immunoblot with anti-phospho-mTOR antibody; type: cell-based; conditions: 25 mM, FIG. 8C
From the text: as §1
(§3) HEK293 cells were seeded and maintained in Dulbecco's modified Eagle's medium (DMEM) containing 10% fetal bovine serum (FBS). Transfection was performed in serum-free conditions using Lipofectamine reagent (Invitrogen, Carlsbad, Calif.) in accordance with the manufacturer's instructions. […] Immunocomplexes were analyzed by SDS-polyacrylamide gel electrophoresis (PAGE).

Akt = experiment: Phosphorylation of Akt, immunoblot; type: cell-based
From the text: as §1, §3

AMPK [7] = experiment: AMPK activation (T172 phosphorylation); type: cell-based; conditions: 25 mM
TSC2 [8] = experiment: TSC2 mobility shift on SDS-PAGE; type: cell-based; conditions: for mobility of TSC2 / 2-DG induced mobility shift: HEK293 cells, 10 μM, added 30 minutes before 2-DG, FIG. 11C
Method: as §2

intracellular ATP [9] = experiment: Intracellular ATP levels and AMP/ATP ratio; type: cell-based; conditions: cells treated with 25 mM
AMPK and TSC2 = experiment: Co-immunoprecipitation of AMPK and TSC2; type: cell-based
Method: as §2

HEK293 cells = experiment: Cell size of HEK293 cells; type: cell-based; conditions: 12.5 mM 2-DG, TSC2 RNAi, or 20 nM rapamycin for 72 hours, FIG. 14D
TSC1 = TSC1 mobility on SDS-PAGE; type: cell-based; conditions: FIG. 11A
Method: as §2

S6K [10] = conditions: concentrations between 20 and 100 mM (Dennis et al., 2001); cited from earlier work
4EBP1 [11] = conditions: concentrations between 20 and 100 mM (Dennis et al., 2001); cited from earlier work
intracellular ATP [12] = conditions: concentrations between 20 and 100 mM (Dennis et al., 2001); cited from earlier work
[13] = system: LEF (TSC2-/- epithelial) cells; experiment: Cell death / apoptosis of LEF cells; type: cell-based; conditions: vector and wild type TSC2 expressing LEF cells
[14] = EEF8 (TSC2-/-) fibroblasts, vector infected, FIG. 13C
[15] = EEF8 cells expressing wild type TSC2, FIG. 13C
[16] = depletion of cellular ATP, FIG. 8A

NC(=O)c1ncn([C@@H]2O[C@H](COP(=O)(O)O)[C@@H](O)[C@H]2O)c1N [AICAR, 5-aminoimidazole-4-carboxyamide ribonucleotide]
AMPK activation (AMPK [1]): activate AMPK
phosphorylation of eEF2 [2]: increase phosphorylation
S6K activity (S6K [3]): inhibit S6K activity

CO[C@H]1C[C@@H]2CC[C@@H](C)[C@@](O)(O2)C(=O)C(=O)N2CCCC[C@H]2C(=O)O[C@H]([C@H](C)C[C@@H]2CC[C@@H](O)[C@H](OC)C2)CC(=O)[C@H](C)/C=C(\C)[C@@H](O)[C@@H](OC)C(=O)[C@H](C)C[C@H](C)/C=C/C=C/C=C/1C [rapamycin]
phosphorylation of Thr 389 in S6K-dC104 (S6K-dC104): not inhibited

insulin: stimulus of the insulin-Akt pathway, used at 400 nM
phosphorylation of Thr 389, Thr 421 and Ser 424 of S6K (S6K [4]; FIG. 1b): stimulated
phosphorylation of TSC2 phosphopeptides (TSC2 [5]; insulin (400 nM), LY294002 or rapamycin (20 nM), FIG. 3c): slightly increased phosphorylation

OC[C@@H](O)[C@@H](O)[C@H](O)[C@H](O)CO [mannitol]
phosphorylation of S6K on T389 (S6K [4]; 25 mM, FIG. 8C): had little effect
phosphorylation of S6K (S6K [4]; 100 mM, FIG. 8C): significantly inhibited

O=CC[C@@H](O)[C@H](O)[C@H](O)CO [2-DG, 2-deoxy-glucose]
phosphorylation of S6K on T389 (S6K [4]; 25 mM, FIG. 8C): effectively inhibited; also recorded: dephosphorylation
S6K phosphorylation as a function of treatment time (S6K [4]; 25 mM, time course, FIG. 8E): concomitant dephosphorylation
S6K phosphorylation (S6K [4]; [14]): caused little decrease
S6K phosphorylation (S6K [4]; [15]): significantly decreased
phosphorylation of S6K (S6K [4]; [16]): caused a dephosphorylation
4EBP1 phosphorylation (4EBP1 [6]; EEF4 (TSC2+/+) cells, FIG. 10G): inhibition of phosphorylation
4EBP1 phosphorylation (4EBP1 [6]; [14]): caused little decrease
4EBP1 phosphorylation (4EBP1 [6]; [15]): significantly decreased
phosphorylation of endogenous 4EBP1 (4EBP1 [6]; FIG. 8C): specifically inhibits; also recorded: dephosphorylation
phosphorylation of 4EBP1 (4EBP1 [6]; [16]): caused a dephosphorylation
phosphorylation of endogenous S6 (S6): dephosphorylation
phosphorylation of mTOR S2448 (mTOR): inhibited; also recorded: dephosphorylation
Akt phosphorylation (Akt; 25 mM, FIG. 8C): had little effect
T172 phosphorylation in AMPK (AMPK [7]; FIG. 8D): dramatic increase; also recorded: induces phosphorylation
AMPK activation as a function of treatment time (AMPK [7]; time course, FIG. 8E): rapid AMPK activation
mobility shift of TSC2 (TSC2 [8]; FIG. 11A): mobility shift
phosphorylation of TSC2 phosphopeptides (TSC2 [5]; 25 and 40 mM, FIG. 12A): enhanced phosphorylation of several peptides; also recorded: induce TSC2 phosphorylation on multiple spots
ATP levels (intracellular ATP [9]; FIG. 8F): statistically significant reduction; also recorded: decreases
AMP/ATP ratio (intracellular ATP [9]; FIG. 8G): increases
interaction between endogenous AMPK and overexpressed TSC2 (AMPK and TSC2; FIG. 9D): enhances the interaction
interaction between endogenous AMPK and TSC2 (co-immunoprecipitation) (AMPK and TSC2; HEK293 cells, FIG. 9A, B): interact preferentially; also recorded: enhanced; also recorded: stimulates the interaction
cell size (HEK293 cells): decreases cell size; also recorded: significantly decreased cell size
mobility of TSC1 (TSC1): did not alter the mobility
S6K phosphorylation (S6K [10]): inhibition
4EBP1 phosphorylation (4EBP1 [11]): inhibition
AMPK activation (AMPK [1]): activate AMPK
reduction of intracellular ATP levels (intracellular ATP [12]): 20 to 50%
phosphorylation of eEF2 [2]: increase phosphorylation
S6K activity (S6K [3]): inhibit S6K activity

COc1cc([C@@H]2c3cc4c(cc3[C@@H](O[C@@H]3O[C@@H]5CO[C@@H](C)O[C@H]5[C@H](O)[C@H]3O)[C@H]3COC(=O)[C@H]23)OCO4)cc(OC)c1O [etoposide]
cell death [13]: caused cell death

c1cc(-c2cnn3cc(-c4ccc(OCCN5CCCCC5)cc4)cnc23)ccn1 [Compound C]
S6K dephosphorylation induced by glucose deprivation (S6K [4]; FIG. 11F, listed as AMPK inhibitor): significantly blocked; also recorded: partially blocks
inhibitory effect of 2-DG on S6K phosphorylation (S6K [4]; HEK 293 cells, FIG. 11E, listed as AMPK inhibitor): significantly reversed; also recorded: blocks the 2-DG induced dephosphorylation
Akt phosphorylation (Akt; HEK 293 cells, AMPK inhibitor treatment): had no effect
mobility of TSC2 / 2-DG induced mobility shift (TSC2 [8]): blocks the 2-DG induced mobility shift
mobility of TSC2 / 2-DG induced mobility shift (TSC2 [8]; listed as compound C): increased the mobility

CC(=O)c1c(O)c(C)c(O)c(Cc2c(O)c3c(c(C(=O)/C=C/c4ccccc4)c2O)OC(C)(C)C=C3)c1O [Rottlerin]
S6K phosphorylation (S6K [4]; EEF4 (TSC2+/+) fibroblasts, FIG. 10F): caused a decrease
phosphorylation of S6K (S6K [4]; [16]): caused a dephosphorylation
phosphorylation of 4EBP1 (4EBP1 [6]; [16]): caused a dephosphorylation

N#CC(C#N)=NNc1ccc(OC(F)(F)F)cc1 [FCCP]
S6K phosphorylation (S6K [4]): caused a decrease
phosphorylation of S6K (S6K [4]): caused a dephosphorylation
phosphorylation of 4EBP1 (4EBP1 [6]): caused a dephosphorylation

— patent US7416724B2, “Diagnosis and treatment of diseases arising from defects in the tuberous sclerosis pathway” (The Regents of the University of Michigan, priority 2002, dated 2008)
